The source of these data is PMC7395176, “Retromer stabilization results in neuroprotection in a model of Amyotrophic Lateral Sclerosis” (Nature Communications, 2020).

Series [1] relates to CI-MPR. As to the kind of experiment: CI-MPR fluorescence in MNs of treated G93A mice. In kind it is in vivo. To be noted: 10 mg/kg, day 100. The source says: We next asked whether increasing VPS35/26 protein levels is sufficient to increase retromer functionality. CI-MPR is unstable in VPS26-knockout cells, and we observed a substantial reduction of CI-MPR MFI levels in MNs of vehicle-treated G93A mice compared with WT litters (Fig. 6c). […] Sortilin encodes a receptor belonging to the Vps10 family involved in Frontotemporal Dementia (FTD)[45], which shares functional homologies with MPRs and is another retromer cargo[46].
Fluorescence intensity levels of VPS35, VPS26, CI-MPR, Sortilin, CTSD and Ubiquitin were calculated using NHI-Image J software (US National Institutes of Health) according to the following protocol: stacks of confocal images were used to generate the maximal projections using the Leica Application Suite X (2.0.0.14332) software and then postprocessed by NHI-Image J to crop single NeuN^+ MNs from the ventral horn of the spinal cord. We next performed background (calculated on adjacent slices only receiving secondary antibodies) subtraction for each channel, before applying the NHI-Image J mean filter (with radius 2.0 pixels) to calculate mean NeuN fluorescence levels in individual MNs. Using this approach, we established a region of interest (ROI) to gate single MNs. On this ROI, we measured mean fluoresce levels (MFI) of target proteins.

Series [2] concerns Cathepsin D (CTSD). As to the kind of experiment: Cathepsin D (CTSD) levels in treated G93A mice. The note with it: 10 mg/kg, day 100. In kind it is in vivo. The text has this:
We next investigated Cathepsin D (CTSD) expression and distribution in G93A mice, since its trafficking involves the retromer complex. In humans, CTSD maturation starts with a pre-pro-CTSD then converted to pro-CTSD (52 kDa) in the endoplasmic reticulum. Recycling of pro-CTSD and its downstream migration to acidic compartments involves CI-MPR and the retromer pathway. Pro-CTSD is further processed to an intermediate form in late endosomes (48 kDa), and finally converted to mature CTSD (34 kDa) in lysosomes. VPS35 inactivation[48] or VPS26 knockdown[21] affect CTSD maturation. We scored CTSD levels in lumbar SC extracts from vehicle-treated WT and vehicle- or 2a-treated G93A mice. […] We next analyzed CTSD levels and CTSD^+ puncta in MNs by confocal microscopy, observing their significant reduction in MNs of vehicle-treated G93A mice that was restored by treatment with compound 2a (Fig. 6f).
Fluorescence intensity levels of VPS35, VPS26, CI-MPR, Sortilin, CTSD and Ubiquitin were calculated using NHI-Image J software (US National Institutes of Health) according to the following protocol: stacks of confocal images were used to generate the maximal projections using the Leica Application Suite X (2.0.0.14332) software and then postprocessed by NHI-Image J to crop single NeuN^+ MNs from the ventral horn of the spinal cord. […] On this ROI, we measured mean fluoresce levels (MFI) of target proteins.

Series [3] concerns GM130. Description: Golgi apparatus (GM130) in MNs of treated G93A mice. In kind it is in vivo. The note with it: 10 mg/kg, day 100. The source says: Ubiquitinated inclusions accumulate in MNs from sALS and fALS patients, and in ALS mice[51]. We characterized poly-ubiquitinated proteins in lumbar SCs protein extracts by 10% denaturating PAGE. Protein extracts from Neuro2a cells treated with the proteasome inhibitor Bortezomib (BTZ), able to increase poly-ubiquitination, were used as an experimental control[52] (Fig. 7a). […] We next scored ubiquitin MFI levels in ventral horn MNs of G93A mice. […] (Fig. 7c and d). We next scored the Golgi apparatus in G93A mice by labeling lumbar sections for the cis-Golgi matrix protein GM130[54]. […] (Fig. 7e).
Sections from mice or glass covers containing cells were washed three times in PBS 1× (Lonza, 5 min each), and incubated in the following blocking mix: PBS 1×/FBS 10% (Invitrogen), BSA 1 mg/mL (Sigma–Aldrich), TritonX100 0.1% (Sigma Aldrich), for 1 h at room temperature. Antibodies were diluted in blocking mix and incubated at +4 °C overnight according manufacturer’s instructions. The following day, sections were rinsed in PBS and fluorescent secondary antibodies—i.e. never deriving from the species from which the primary antibodies are derived- (Alexafluor conjugated) diluted in blocking mix, were used according to the manufacturer’s instructions. Slides were incubated in Hoechst 33342 (Sigma–Aldrich) for nuclei counterstaining. […]

In series [4] the test system is Mouse cortical neurons (E16.5). As to the kind of experiment: Micro Electrode Array (MEA) recording of neuronal firing. In kind it is cell-based. As to the method:
We assessed the cytotoxicity of compound 2a, measuring survival of Neuro2a cells exposed to increasing 2a concentrations. […] We next checked for toxic effects of compound 2a in primary neuronal cultures coupled with Micro Electrode Array (MEA) devices. Mouse cortical neurons (E16.5) were plated on MEAs, kept in culture for 14 days to develop firing activity and recorded in presence of 2a.
Primary neuronal cultures were established from the cerebral cortex of E16.5 C57BL6J embryos. Upon dissection, cells were plated on MEA biochips (60 electrode MEA biochips with 200 µm electrode spacing and 30 µm electrodes diameter with an integrated reference electrode, Multichannel Systems GmbH) at the density of 3 × 10^5 cells/MEA and kept in Neurobasal medium supplemented with B27 for 14 days. At day 14 neuronal cultures were exposed to increasing concentration of compound 2a (1, 3, 10, 30, and 100 µM) in Krebs–Ringer–Hepes buffer (KRH, 130 mM NaCl, 5 mM KCl, 1.2 mM KH2PO4, 1.2 mM MgSO4, 2 mM CaCl2, 25 mM Hepes, 0.6% glucose, 1% glutamine, Sigma–Aldrich). Firing activity was recorded using a pre-amplifier stage (MEA-1060-Inv-BC-Standard, gain: 55, bandwidth: 300 Hz–8 kHz, MCS GmbH), an amplification and filtering stage (FA64S, gain 20, bandwidth: 10 Hz–8 kHz, MCS GmbH) and a data acquisition device (sampling frequency: 25 kHz). Then, off-line signal processing was performed, and raw data were analyzed by MC-Rack Software version 4.6.2 (MCS GmbH).
Panels a and b; neuronal activityfrom the same electrode of a representative MEA biochip (3x105 cortical neurons/chip, n=5 independent chips from 2 independent experiments) treated with 2a, at the concentration of 1 µM (a) and 100 µM (b). Neurons received increasing amounts of lead 2a (1,3, 10, 30 and 100 µM) and were recorded every 5 min; c, quantifications of the firing activityreported as fold changes of spike numbers (box plots show median values; whiskers show 10-90 percentile) measured at the concentration of 1
µM. Kruskal-Wallis testfollowed by Dunn’s multiple comparison test was used to analyze the […]

Series [5] deals with VPS26b. As to the kind of experiment: Western blot for VPS26b in treated Neuro2a cells. The series is classed as cell-based. The note with it: 10 µM, 48 h, WB. How it is done: Compound 2a increases VPS26b and VPS29 in Neuro2a […]
a,WBs forVPS26b, VPS29 and β-Tubulin in vehicle- and compound 2a-treated Neuro2a cells(10 μM, 48h, 3x10^5 cells/well).Quantitative analyses of blots (means ± SD) are shown inhistograms (control:n=4 independent wells, 2a: n=5 independent wells examined in one experiment, p<0.0001 for all the comparisons. Two-tailed Student’s test was used to determine the statisticalsignificanceof data, ***p<0.0001
(1 picture or pasted object on this page, not shown here)
For orientation: In western blotting, separated proteins are transferred to a membrane and probed.

SMILES strings stand for the structures.

Take `NC(N)=N/N=C/c1cccc(/C=N/N=C(N)N)c1` [compound 2a, phenyl-1,3-bis-guanylhydrazone]: the “CI-MPR MFI levels in MNs” value in series [1] was “significantly increased”. For the same compound, in series [2], the “CTSD levels and CTSD+ puncta in MNs (confocal)” value was “restored”; the “levels of mature CTSD (WB, lumbar SC extracts)” value is on record as “significantly increased”. Moreover, the “reduction of GM130-covered areas in MNs (Golgi fragmentation)” value in series [3] is “substantially reverted”. The neuronal firing entry in series [4] (10µM) is “does not perturb neuronal firing”. Further, in series [4] (100 μM of 2a), the “neuronal firing (spikes)” value is on record as “slight reduction of spikes”. The neuronal firing entry in series [4] (low concentrations of 2a) is “did not alter neuronal firing”. Besides, the VPS26b protein levels entry in series [5] was “significantly increased”.
